Laboratory results: patent publication US8765779B2, “Tricyclic derivatives and their pharmaceutical use and compositions” (Cephalon, Inc., priority 2009, dated 2014)
Counter-ions that a name gives are not always drawn.

Each compound was assayed against T1, human 5-HT6 receptor (Homo sapiens, UniProt P50406) (assay: Human 5-HT6 Receptor Binding Assay ([3H]LSD displacement, scintillation beads)). Settings: membranes of CHO-K1 cells with recombinant human 5-HT6, 4 nM [3H]LSD; Table 1, class symbols; read-out: h5-HT6 (Ki).
T1 construct: host or cells: CHO-K1 cells, stably transfected; membranes prepared in house
T1 sequence (P50406 whole entry): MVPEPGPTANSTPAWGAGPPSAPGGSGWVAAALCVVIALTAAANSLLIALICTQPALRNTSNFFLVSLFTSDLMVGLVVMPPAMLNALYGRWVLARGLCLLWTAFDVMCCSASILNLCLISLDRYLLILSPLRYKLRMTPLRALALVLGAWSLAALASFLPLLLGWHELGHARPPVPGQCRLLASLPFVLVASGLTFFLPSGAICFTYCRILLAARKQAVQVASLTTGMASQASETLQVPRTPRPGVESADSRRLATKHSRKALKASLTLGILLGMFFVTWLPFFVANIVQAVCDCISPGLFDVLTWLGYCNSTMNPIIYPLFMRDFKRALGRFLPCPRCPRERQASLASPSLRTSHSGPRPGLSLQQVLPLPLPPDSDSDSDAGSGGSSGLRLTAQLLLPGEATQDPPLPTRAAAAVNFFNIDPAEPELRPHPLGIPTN
In the case of `[O-][S+](c1ccc2c3c(oc2c1)CNCC3)c1cc(Cl)ccc1Cl` (stereo not shown) [Example 214], the Ki is reported as less than 500 nM. With `O=S(=O)(c1cccc(Cl)c1)c1ccc2c3c(oc2c1)C1CCN1CC3` (stereo not shown) [Example 621] the Ki was less than 500 nM. `O=S(=O)(c1cccc(Oc2cnccn2)c1)c1ccc2c(c1)OC1CNCCC21` (stereo not shown) [Example 580] was tested, and the Ki was less than 500 nM. With `[O-][S+](c1cccc(F)c1)c1ccc2c(c1)OC1CNCCC21` (stereo not shown) [Example 625, 7-[(3-Fluorophenyl)sulfinyl]-1,2,3,4,4a,9a-hexahydro[1]benzofuro[2,3-c]pyridine trifluoroacetic acid salt] the Ki was less than 500 nM. Work on `O=S(=O)(Nc1ccc2c(c1)C1CCNCC1O2)c1cc2ccccc2o1` (stereo not shown) [Example 833] yielded a Ki of 500 to 1000 nM. `CC1(C)NCCc2c1oc1cc(S(=O)(=O)c3cccc(OC(F)(F)F)c3)ccc21` [Example 291, 1,1-dimethyl-7-{[3-(trifluoromethoxy)phenyl]sulfo-nyl}-1,2,3,4-tetrahydro[1]benzofuro[2,3-c]pyridine] showed a Ki of less than 500 nM. `O=S(=O)(c1cccc(OCC2CCOCC2)c1)c1ccc2c(c1)OC1CNCCC21` (single isomer, unassigned) [Example 548, 7-{[3-(Tetrahydro-2H-pyran-4-ylmethoxy)phenyl]sulfonyl}-1,2,3,4,4a,9a-hexahydro[1]benzofuro[2,3-c]pyridine] showed a Ki of less than 500 nM. Work on `COc1ccc(S(=O)(=O)c2ccc3c(c2)OC2CNCCC32)cc1F` (stereo not shown) [Example 129] yielded a Ki of 500 to 1000 nM. `O=S(=O)(c1cccc(Cl)c1)c1ccc2c3c(oc2c1)C(C1CCOC1)NCC3` (stereo not shown) [Example 521] showed a Ki of less than 500 nM. `CC1(C)NCCc2c1oc1cc(S(=O)(=O)c3cc(Cl)cnc3O)ccc21` [Example 373] showed a Ki greater than 1000 nM. Work on `O=S(=O)(c1ccc2c(c1)OC1CNCCC21)c1cccc2ccccc12` (stereo not shown) [Example 114] yielded a Ki of less than 500 nM. `O=S(=O)(c1ccccc1Cl)c1cccc2c1OC1CNCCC21` (stereo not shown) [Example 183] was tested, and the Ki was less than 500 nM. `O=S(=O)(c1cncc(F)c1)c1ccc2c(c1)OC1CNCCC21` (stereo not shown) [Example 397] showed a Ki greater than 1000 nM. `O=S(=O)(c1cncc(F)c1)c1ccc2c3c(oc2c1)CNCC3` [Example 441] was tested, and the Ki was less than 500 nM. With `COCCOc1cccc(S(=O)(=O)c2ccc3c(c2)OC2CNCCC32)c1` (stereo not shown) [Example 558] the Ki was 500 to 1000 nM. In the case of `O=S(=O)(c1cccc(F)c1)c1ccc2c3c(oc2c1)C1CCN1CC3` (stereo not shown) [Example 616, 8-[(3-Fluorophenyl)sulfonyl]-1,4,5,10b-tetrahydro-2H-azeto[1,2-a][1]benzofuro[2,3-c]pyridine], the Ki is reported as less than 500 nM. With `O=S1(=O)CCC2(CC1)NCCc1c2oc2cc(S(=O)(=O)c3cccc(F)c3)ccc12` [Example 38, 7-[(3-fluorophenyl)sulfonyl]-2′,3,3′,4,5′,6′-hexahydro-2H-spiro[1-benzofuro[2,3-c]pyridine-1,4′-thiopyran] 1′,1′-dioxide] the Ki was less than 500 nM. `COC(=O)c1cccc(S(=O)(=O)c2ccc3c(c2)OC2CNCCC32)c1` (stereo not shown) [Example 138] gave a Ki greater than 1000 nM. `O=S(=O)(c1cccc(C(F)(F)F)c1)c1ccc2c(c1)OC1CNCCC21` (stereo not shown) [Example 167] gave a Ki of less than 500 nM. `O=S(=O)(c1cccc(F)c1)c1ccc2c3c(oc2c1)CNCC3` [Example 341] gave a Ki of less than 500 nM. `O=S(=O)(Oc1ccc2c(c1)C1CCNCC1O2)c1ccccn1` (stereo not shown) [Example 753] was tested, and the Ki was greater than 1000 nM. With `O=S(=O)(Nc1cc(Cl)cc(Cl)c1)c1ccc2c(c1)C1CCNCC1O2` (stereo not shown) [Example 843] the Ki was greater than 1000 nM. For `CC(=O)N1CCC2(CC1)NCCc1c2oc2cc(S(=O)(=O)c3cccc(F)c3)ccc12` [Example 41, 1-{7-[(3-fluorophenyl)sulfonyl]-3,4-dihydro-1′H,2H-spiro[1-benzofuro[2,3-c]pyridine-1,4′-piperidin]-1′-yl}ethanone], the Ki was less than 500 nM. Work on `O=S(=O)(c1ccc(OC(F)(F)F)cc1)c1ccc2oc3c(c2c1)CCNC3` [Example 275, 6-{[4-(trifluoromethoxy)phenyl]sulfo-nyl}-1,2,3,4-tetrahydro[1]benzofuro[2,3-c]pyridine] yielded a Ki of 500 to 1000 nM. With `O=S(=O)(c1cc(F)cc(Cl)c1)c1ccc2c3c(oc2c1)CNCC3` [Example 207] the Ki was less than 500 nM. `Cc1oncc1S(=O)(=O)Oc1ccc2c(c1)OC1CNCCC21` (stereo not shown) [Example 640] was tested, and the Ki was greater than 1000 nM. Work on `CC1(C)NCCc2c1oc1cc(S(=O)(=O)c3c[nH]c(=O)c(C(F)(F)F)c3)ccc21` [Example 377] yielded a Ki greater than 1000 nM. `CC(=O)NCC1(C)NCCc2c1oc1cc(S(=O)(=O)c3cccc(F)c3)ccc21` (stereo not shown) [Example 631, N-({7-[(3-fluorophenyl)sulfonyl]-1-methyl-1,2,3,4-tetrahydro[1]benzofuro[2,3-c]pyridin-1-yl}methyl)acetamide] showed a Ki of less than 500 nM. `Cn1cnc(S(=O)(=O)Oc2ccc3c(c2)OC2CNCCC32)c1` (stereo not shown) [Example 639] gave a Ki greater than 1000 nM. Compound `O=S(=O)(Nc1ccc2c(c1)C1CCNCC1O2)c1cccc(Cl)c1` (stereo not shown) [Example 826] has a Ki of less than 500 nM. `O=S(=O)(c1ccc2c(c1)OC1CNCCC21)c1cccc(Cl)c1Cl` (stereo not shown) [Example 162] was tested, and the Ki was less than 500 nM. Work on `O=S(=O)(Nc1cccc(Cl)c1)c1ccc2c(c1)C1CCNCC1O2` (stereo not shown) [Example 853] yielded a Ki of 500 to 1000 nM. Work on `O=S(=O)(Nc1ccc2c(c1)C1CCNCC1O2)c1ccccc1` (stereo not shown) [Example 817, N-(1,2,3,4,4a,9a-Hexahydro[1]benzofuro[2,3-c]pyridin-6-yl)benzenesulfonamide] yielded a Ki greater than 1000 nM. Compound `O=S(=O)(c1ccc2c(c1)C1CCNCC1O2)c1ccccc1Cl` (stereo not shown) [Example 169] has a Ki of 500 to 1000 nM. `Cc1ncccc1S(=O)(=O)c1ccc2c3c(oc2c1)C(C)(C)NCC3` [Example 375] showed a Ki of less than 500 nM. `CCCOc1cccc(S(=O)(=O)c2ccc3c(c2)OC2CNCCC32)c1` (stereo not shown) [Example 572] showed a Ki of less than 500 nM. `N#Cc1ccc(S(=O)(=O)c2ccc3c(c2)OC2CNCCC32)cc1` (stereo not shown) [Example 139] was tested, and the Ki was greater than 1000 nM. Work on `CCCCOc1cccc(S(=O)(=O)c2ccc3c(c2)OC2CNCCC32)c1` (stereo not shown) [Example 554] yielded a Ki of less than 500 nM. Work on `O=S(=O)(Oc1ccc2c(c1)C1CCNCC1O2)c1ccccc1` (stereo not shown) [Example 696] yielded a Ki greater than 1000 nM. `CC1(C)CNC2(CCOC2)c2oc3cc(S(=O)(=O)c4cccc(F)c4)ccc3c21` (racemic) [Example 46, 7-[(3-fluorophenyl)sulfonyl]-4,4-dimethyl-3,4,4′,5′-tetrahydro-2H-spiro[1-benzofuro[2,3-c]pyridine-1,3′-furan]] gave a Ki of less than 500 nM. `O=S(=O)(c1ccc2c(c1)C1CCNCC1O2)N1CCN(c2ccccc2)CC1` (stereo not shown) [Example 845] was tested, and the Ki was greater than 1000 nM. For “7-[(3,5-Difluorophenyl)sulfonyl]-2′,3,3′,4,4a,5′,6′,9a-octahydro-2H-spiro[1-benzofuro[2,3-c]pyridine-1,4′-pyran]hydrochloride [Example 623]”, the Ki was greater than 1000 nM. Work on `CC12CCNCC1Oc1cc(S(=O)(=O)c3ccccn3)ccc12` (racemic) [Example 8, 4a-methyl-7-(pyridin-2-ylsulfonyl)-1,2,3,4,4a,9a-hexahydro[1]benzofuro[2,3-c]pyridine] yielded a Ki greater than 1000 nM. With `Cc1ccc(F)cc1S(=O)(=O)c1ccc2c(c1)OC1CNCCC21` (stereo not shown) [Example 130] the Ki was less than 500 nM. `O=S(=O)(c1ccc(Cl)cc1)c1ccc2c(c1)C1CCNCC1O2` (stereo not shown) [Example 335] gave a Ki greater than 1000 nM. Compound `O=S(=O)(Oc1ccc2c(c1)C1CCNCC1O2)c1ccc(Cl)cc1` (stereo not shown) [Example 695] has a Ki greater than 1000 nM. Work on `O=S(=O)(Oc1ccc2c(c1)OC1CNCCC21)c1cccc(C(F)(F)F)c1` (stereo not shown) [Example 675] yielded a Ki of less than 500 nM. For `O=S(=O)(c1ccc2c3c(oc2c1)CNCC3)c1cc(F)ccc1F` [Example 223], the Ki was less than 500 nM. `COc1ccc(S(=O)(=O)c2ccc3c4c(oc3c2)CNCC4)cc1F` [Example 194] showed a Ki of less than 500 nM. `COc1cccc(S(=O)(=O)c2ccc3c4c(oc3c2)CNCC4)c1` [Example 199] gave a Ki of less than 500 nM. `CN(Cc1ccccc1)S(=O)(=O)c1ccc2c(c1)C1CCNCC1O2` (stereo not shown) [Example 858] was tested, and the Ki was greater than 1000 nM. Work on `O=S(=O)(Cc1cccc(C(F)(F)F)c1)Oc1ccc2c(c1)C1CCNCC1O2` (stereo not shown) [Example 750] yielded a Ki greater than 1000 nM. With `O=S(=O)(Oc1ccc2c(c1)OC1CNCCC21)c1csc2ccccc12` (stereo not shown) [Example 665] the Ki was less than 500 nM. In the case of `O=S(=O)(c1ccc2ccccc2c1)c1cccc2c1OC1CNCCC21` (stereo not shown) [Example 189], the Ki is reported as less than 500 nM. For `O=S(=O)(c1ccc(F)c(Cl)c1)c1ccc2c(c1)OC1CNCCC21` (stereo not shown) [Example 127], the Ki was less than 500 nM. `O=S(=O)(c1cccc(F)c1)c1ccc2oc3c(c2c1)CCNC3C(F)(F)F` (stereo not shown) [Example 511] gave a Ki greater than 1000 nM. For `CC1(C)NCCc2c1oc1cc(S(=O)(=O)c3cc(Cl)c[n+]([O-])c3N)ccc21` [Example 371], the Ki was less than 500 nM. With `O=S(=O)(c1cc(Cl)cc(Cl)c1)c1ccc2c(c1)OC1CNCCC21` (stereo not shown) [Example 155] the Ki was less than 500 nM. Compound `CC(=O)N1CCc2c(oc3cc(S(=O)(=O)c4cccc(Cl)c4)ccc23)C1` [Example 615, 1-{7-[(3-Chlorophenyl)sulfonyl]-3,4-dihydro[1]benzofuro[2,3-c]pyridin-2(1H)-yl}ethanone] has a Ki of less than 500 nM. Work on `N#Cc1ccc(S(=O)(=O)c2ccc3c4c(oc3c2)CNCC4)cc1` [Example 220] yielded a Ki of less than 500 nM. For `CN(c1ccc2c(c1)OC1CNCCC21)S(=O)(=O)c1c(Cl)nc2sccn12` (stereo not shown) [Example 835, 6-Chloro-N-[1,2,3,4,4a,9a-hexahydro[1]benzofuro[2,3-c]pyridin-7-yl]-N-methylimidazo[2,1-b][1,3]thiazole-5-sulfonamide], the Ki was less than 500 nM. In the case of `CC12CCNCC1Oc1cc(S(=O)(=O)c3cccc(F)c3)ccc12` (racemic) [Example 11, 7-[(3-fluorophenyl)sulfonyl]-4a-methyl-1,2,3,4,4a,9a-hexahydro[1]benzofuro[2,3-c]pyridine], the Ki is reported as less than 500 nM. Compound `CC(C)Oc1cc(OCCO)cc(S(=O)(=O)c2ccc3c(c2)OC2CNCCC32)c1` (stereo not shown) [Example 590] has a Ki of less than 500 nM. `CC1(C)NCCc2c1oc1cc(S(=O)(=O)c3ccc(F)c(Cl)c3)ccc21` [Example 18, 7-[(3-chloro-4-fluorophenyl)sulfonyl]-1,1-dimethyl-1,2,3,4-tetrahydro[1]benzofuro[2,3-c]pyridine] was tested, and the Ki was less than 500 nM. For `Cc1ccc(C)c(S(=O)(=O)Oc2ccc3c(c2)OC2CNCCC32)c1` (stereo not shown) [Example 647], the Ki was less than 500 nM. For `O=S(=O)(NCCc1ccccc1)c1ccc2c(c1)C1CCNCC1O2` (stereo not shown) [Example 855], the Ki was greater than 1000 nM. Compound `COc1ccc(S(=O)(=O)c2ccc3c(c2)C2CCNCC2O3)cc1OC` (stereo not shown) [Example 171] has a Ki greater than 1000 nM.
